Here are results for five compounds from patent EP0848706B1, “SUBSTITUTED BENZENE-FUSED HETEROCYCLICS AS NEUROKININ ANTAGONISTS” (SCHERING CORPORATION, priority 1995, dated 1996).

For one assay, the target named is T1, human NK-2 receptor (Homo sapiens, UniProt P21452).
T1 construct: expressed in transfected cells; host or cells: Chinese Hamster ovary (CHO) cells
T1 sequence (P21452 1-398): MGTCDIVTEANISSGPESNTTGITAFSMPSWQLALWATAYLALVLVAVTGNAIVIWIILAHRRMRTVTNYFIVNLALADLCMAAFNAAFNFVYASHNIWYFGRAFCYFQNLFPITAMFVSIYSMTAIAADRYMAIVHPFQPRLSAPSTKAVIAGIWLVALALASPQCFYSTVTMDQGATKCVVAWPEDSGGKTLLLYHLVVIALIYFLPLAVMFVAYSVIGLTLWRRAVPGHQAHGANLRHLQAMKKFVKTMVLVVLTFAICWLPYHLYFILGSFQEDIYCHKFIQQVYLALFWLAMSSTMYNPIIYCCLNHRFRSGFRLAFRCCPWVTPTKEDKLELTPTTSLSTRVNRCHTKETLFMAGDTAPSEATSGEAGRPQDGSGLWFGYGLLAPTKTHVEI
As to the kind of experiment: Neurokinin receptor binding assay, NK-2 ([3H]-Neurokinin A, CHO cell membranes). The note with it: for inhibition at 1 µM: read-out: % Inhibition NK2 (1µM dose); for Ki: Ki according to Cheng and Prusoff from competition binding curves, read-out: Ki (NK2). How it is done: (§1) Chinese Hamster ovary (CHO) cells transfected with the coding regions for the human neurokinin 1 (NK1) of the human neurokinin 2 (NK2) receptors are grown in Dulbecco's minimal essential medium supplemented with 10% fetal calf serum, 0.1 mM non-essential amino acids, 2 mM glutamine, 100units/ml of penicillin and streptomycin, and 0.8 mg of G418/ml at 37°C in a humidified atmosphere containing 5% CO2.
(§2) Cells are detached from T-175 flasks with a sterile solution containing 5mM EDTA in phosphate buffered saline. Cells are harvested by centrifugation and washed in RPMI media at […] for 5 minutes. The pellet is resuspended inTris-HCl (pH7.4) containing 1 uM phsphoramidon and 4 ug/ml of chymostatin at a cell density of 30 x 10^6 cells/ml. The suspension is then homogenized in a Brinkman Polytron (setting 5) for 30-45 seconds. The homogenate is centrifuged at 800 x g for 5 min at 4°C to collect unbroken cells and nuclei. The supernatant is centrifuged in a Sorvall RC5C at 19,000 rpm ([…]) for 30 min at 4°C. The pellet is resuspended, an aliquot is removed for a protein determination (BCA) and washed again. The resulting pellet is stored at -80°C.
(§3) To assay receptor binding, 50 µl of [^3H]-Substance P (9-Sar, 11-Met) (specific activity 41 Ci/mmol) (Dupont-NEN) (0.8 nM for the NK-1 assay) or [^3H]-Neurokinin A (specific activity 114 Ci/ mmole) (Zenca) (1.0 nM for the NK-2 assay) is added to tubes containing buffer (50 mM Tris-HCl (pH 7.4) with 1 mM MnCl2 and 0.2% Bovine Serum Albumin) and either DMSO or test compound. Binding is initiated by the addition of 100µl of membrane (10-20 µg) containing the human NK-1 or NK-2 receptor in a final volume of 200 µl. After 40 minutes at room temperature, the reaction is stopped by rapid filtration onto Whatman GF/C filters which have been presoaked in 0.3% polyethylenimine. Filters are washed 2 times with 3 ml of 50 mM Tris-HCl (pH7.4). Filters are added to 6 mls of Ready-Safe liquid scintillation cocktail and quantified by liquid scintillation spectrometry in a LKB 1219 RackBeta counter. Non-specific binding is determined by the addition of either 1 µM of CP-99994 (NK-1) or 1µM SR-48968 (NK-2) (both synthesized by the chemistry department of Schering-Plough Research Institute). IC50 values are determined from competition binding curves and Ki values are determined according to Cheng and Prusoff using the experimentally determined value of 0.8 nM for the NK-1 receptor and 2.4 nM for the NK-2 receptor.
(§4) % Inhibition is the difference between the percent of maximum specific binding (MSB) and 100%. The percent of MSB is defined by the following equation, wherein "dpm" is disintegrations per minute: % MSB =((dpm of unknown) - (dpm of nonspecific binding))/((dpm of total binding) - (dpm of nonspecific binding))X 100 [formula]

A further assay has as its target T2, human NK-1 receptor (Homo sapiens, UniProt P25103).
T2 construct: expressed in transfected cells; host or cells: Chinese Hamster ovary (CHO) cells
As to the kind of experiment: Neurokinin receptor binding assay, NK-1 ([3H]-Substance P, CHO cell membranes). Conditions: for inhibition at 1 µM: read-out: % Inhibition NK1 (1µM dose); for Ki: Ki according to Cheng and Prusoff from competition binding curves, read-out: Ki(NK1). How it is done: as §1, §2, §3, §4

The target of the next assay is T3, NK3 (Homo sapiens, UniProt P29371).
T3 sequence (P29371 1-465): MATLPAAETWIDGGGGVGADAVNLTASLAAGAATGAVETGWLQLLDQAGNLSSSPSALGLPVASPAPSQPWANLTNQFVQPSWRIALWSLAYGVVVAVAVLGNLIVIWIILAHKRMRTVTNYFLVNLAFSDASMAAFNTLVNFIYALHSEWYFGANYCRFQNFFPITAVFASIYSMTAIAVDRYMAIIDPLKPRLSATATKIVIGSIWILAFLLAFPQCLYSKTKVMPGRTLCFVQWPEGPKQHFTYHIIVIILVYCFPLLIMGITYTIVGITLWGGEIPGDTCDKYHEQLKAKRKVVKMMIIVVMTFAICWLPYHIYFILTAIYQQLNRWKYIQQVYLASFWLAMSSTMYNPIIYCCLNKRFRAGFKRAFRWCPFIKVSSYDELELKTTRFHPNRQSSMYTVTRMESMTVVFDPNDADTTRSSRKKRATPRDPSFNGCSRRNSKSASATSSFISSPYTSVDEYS
As to the kind of experiment: NK3 activity, procedure similar to the literature (Molecular Pharmacol., 48 (1995), p. 711-716). It is filed as binding. On the procedure: NK3 activity is determined by following a procedure similar to that described in the literature, e.g., Molecular Pharmacol., 48 (1995), p. 711-716.

Where [1] appears, read: 1µM dose, % inhibition = 100% minus percent of maximum specific binding.

Structures are written as SMILES. Like-named read-outs stand apart in the source and are kept apart here.

T2 sequence (P25103 whole entry): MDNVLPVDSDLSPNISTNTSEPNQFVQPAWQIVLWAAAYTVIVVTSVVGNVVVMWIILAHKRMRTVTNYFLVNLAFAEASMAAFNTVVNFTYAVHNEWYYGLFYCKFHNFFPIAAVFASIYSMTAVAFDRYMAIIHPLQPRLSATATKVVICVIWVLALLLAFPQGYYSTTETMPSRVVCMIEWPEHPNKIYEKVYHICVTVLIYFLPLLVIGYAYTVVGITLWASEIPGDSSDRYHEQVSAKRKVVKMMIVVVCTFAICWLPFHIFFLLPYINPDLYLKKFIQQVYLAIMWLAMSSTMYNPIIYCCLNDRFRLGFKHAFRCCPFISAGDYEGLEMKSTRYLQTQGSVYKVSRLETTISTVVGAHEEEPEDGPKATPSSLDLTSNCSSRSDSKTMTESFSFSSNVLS

`CN(CCc1c[nH]c2ccccc12)CCC(CN(C)C(=O)c1ccc2c(c1)OCO2)c1ccc(Cl)c(Cl)c1` (stereo not shown) [Example 12a]: the inhibition (usually the percentage by which the read-out fell short of the control) at 1 µM is 96% at human NK-2 receptor (setting [1]) and 69% on human NK-1 receptor (setting [1]). For the same compound, the inhibition constant Ki (commonly the dissociation constant of the complex between target and ligand, obtained from inhibition or displacement) amounted to 59 nM at human NK-2 receptor and 165 nM at human NK-1 receptor.

Consider `COc1cc(C(=O)N(C)CC(CCN(C)CCc2c[nH]c3ccc(F)cc23)c2ccc(Cl)c(Cl)c2)cc(OC)c1OC` (racemic) [Example 7c], for which, on human NK-2 receptor, the Ki came out at 10 nM and the inhibition at 1 µM was 100%. Besides, on human NK-1 receptor, the Ki was 12 nM.

Consider `C=CCN(CCc1c[nH]c2ccccc12)CCC(CN(C)C(=O)c1cc(OC)c(OC)c(OC)c1)c1ccc(Cl)c(Cl)c1` (stereo not shown) [Example 9b], for which the inhibition constant (Ki) came to 250 nM at human NK-2 receptor and 23 nM on human NK-1 receptor.

Consider `COc1cc(C(=O)N(C)CC(CCN(C)CCc2c[nH]c3ccccc23)c2ccc(Cl)c(Cl)c2)cc(OC)c1OC` (stereo not shown) [Example 2], for which the inhibition constant Ki at human NK-2 receptor was found to be 33 nM; on human NK-1 receptor it was 25 nM; on NK3 it was 448 nM. Besides, the inhibition at 1 µM at human NK-2 receptor came out at 87%; at human NK-1 receptor, 81%.

For the compound `COc1cc(OC)cc(C(=O)N2CCC(CCN(C)CCc3c[nH]c4ccccc34)(c3ccc(Cl)c(Cl)c3)C2)c1` (stereo not shown) [Example 14a], the Ki at human NK-2 receptor was 30 nM; on human NK-1 receptor, 233 nM.
